The numbers were not newly measured in US20160249623A1, “METHODS FOR DISPENSING SALT-FREE HYPOCHLOROUS ACID FOR HAND-SANITIZING” (priority 2015, published 2016), which cites them from elsewhere.

Molecules are shown by their SMILES.

The subject of data set [1] is HIV (Human Immunodeficiency Virus). The settings on record: the longest kill-time.
For data set [2], the system named is all viruses, bacteria, mold and spores.

`OCl` [HOCI, hypochlorous acid]: the kill-time result in data set [1] was “less than 1 minute”; in data set [2] it was “within seconds”.
